Measurements reported in patent US20030144249A1, “Use of organophosphorous compounds for producing a medicament for treating infections” (priority 2000, published 2003).

Columns and labels:
Avena fatua [1] = assay: Herbicidal activity, soil, pre-emergence; assay type: in vivo; conditions: read-out: Herbicidal activity, Avena fatua
Experimental: (§1) Herbicidal activity is determined using standard methods.
(§2) Substances 1 to 8 listed on page 5 are again investigated.

Abutilon theophrasti [2] = assay: Herbicidal activity, soil, pre-emergence; assay type: in vivo; conditions: read-out: Herbicidal activity, Abutilon theophrasti
Experimental: as §1, §2

Cyperus esculentus [3] = assay: Herbicidal activity, soil, pre-emergence; assay type: in vivo; conditions: read-out: Herbicidal activity, Cyperus esculentus
Experimental: as §1, §2

Xanthium strumarium [4] = assay: Herbicidal activity, soil, pre-emergence; assay type: in vivo; conditions: read-out: Herbicidal activity, Xanthium strumarium
Experimental: as §1, §2

Amaranthus retroflexus [5] = assay: Herbicidal activity, soil, pre-emergence; assay type: in vivo; conditions: read-out: Herbicidal activity, Amaranthus retroflexus
Experimental: as §1, §2

Alopecurus myosuroides [6] = assay: Herbicidal activity, soil, pre-emergence; assay type: in vivo; conditions: read-out: Herbicidal activity, Alopecurus myosuroides
Experimental: as §1, §2

Setaria viridis [7] = assay: Herbicidal activity, soil, pre-emergence; assay type: in vivo; conditions: read-out: Herbicidal activity, Setaria viridis
Experimental: as §1, §2

Beta vulgaris [8] = assay: Herbicidal activity, soil, pre-emergence; assay type: in vivo; conditions: read-out: Herbicidal activity, Beta vulgaris
Experimental: as §1, §2

Galium aperine [9] = assay: Herbicidal activity, soil, pre-emergence; assay type: in vivo; conditions: read-out: Herbicidal activity, Galium aperine
Experimental: as §1, §2

Sinapis arvensis [10] = assay: Herbicidal activity, soil, pre-emergence; assay type: in vivo; conditions: Mutarda arvensis, read-out: Herbicidal activity, Sinapis arvensis
Experimental: as §1, §2

Zea mays [11] = assay: Herbicidal activity, soil, pre-emergence; assay type: in vivo; conditions: read-out: Herbicidal activity, Zea mays
Experimental: as §1, §2

Avena fatua [12] = assay: Herbicidal activity, soil, post-emergence; assay type: in vivo; conditions: read-out: Herbicidal activity, Avena fatua
Experimental: as §1, §2

Abutilon theophrasti [13] = assay: Herbicidal activity, soil, post-emergence; assay type: in vivo; conditions: read-out: Herbicidal activity, Abutilon theophrasti
Experimental: as §1, §2

Cyperus esculentus [14] = assay: Herbicidal activity, soil, post-emergence; assay type: in vivo; conditions: read-out: Herbicidal activity, Cyperus esculentus
Experimental: as §1, §2

Xanthium strumarium [15] = assay: Herbicidal activity, soil, post-emergence; assay type: in vivo; conditions: read-out: Herbicidal activity, Xanthium strumarium
Experimental: as §1, §2

Amaranthus retroflexus [16] = assay: Herbicidal activity, soil, post-emergence; assay type: in vivo; conditions: read-out: Herbicidal activity, Amaranthus retroflexus
Experimental: as §1, §2

Alopecurus myosuroides [17] = assay: Herbicidal activity, soil, post-emergence; assay type: in vivo; conditions: read-out: Herbicidal activity, Alopecurus myosuroides
Experimental: as §1, §2

Setaria viridis [18] = assay: Herbicidal activity, soil, post-emergence; assay type: in vivo; conditions: read-out: Herbicidal activity, Setaria viridis
Experimental: as §1, §2

Beta vulgaris [19] = assay: Herbicidal activity, soil, post-emergence; assay type: in vivo; conditions: read-out: Herbicidal activity, Beta vulgaris
Experimental: as §1, §2

Galium aperine [20] = assay: Herbicidal activity, soil, post-emergence; assay type: in vivo; conditions: read-out: Herbicidal activity, Galium aperine
Experimental: as §1, §2

Sinapis arvensis [21] = assay: Herbicidal activity, soil, post-emergence; assay type: in vivo; conditions: Mutarda arvensis, read-out: Herbicidal activity, Sinapis arvensis
Experimental: as §1, §2

Zea mays [22] = assay: Herbicidal activity, soil, post-emergence; assay type: in vivo; conditions: read-out: Herbicidal activity, Zea mays
Experimental: as §1, §2

Echinochloa = assay: Herbicidal activity, water, pre-emergence; assay type: in vivo; conditions: read-out: Herbicidal activity, Echinochloa
Experimental: as §1, §2

Lepidium = assay: Herbicidal activity, water, pre-emergence; assay type: in vivo; conditions: read-out: Herbicidal activity, Lepidium
Experimental: as §1, §2

Solanum = assay: Herbicidal activity, water, pre-emergence; assay type: in vivo; conditions: read-out: Herbicidal activity, Solanum
Experimental: as §1, §2

Rice = assay: Herbicidal activity, water, pre-emergence; assay type: in vivo; conditions: Oryza sativa, read-out: Herbicidal activity, Rice
Experimental: as §1, §2

[23] = biological target: T1, DOXP reductoisomerase from Helicobacter pylori (Helicobacter pylori, UniProt P56139); assay: DOXP reductoisomerase inhibition (NADPH oxidation at 365 nm); assay type: biochemical
T1 construct: made in house; host or cells: Helicobacter pylori (so in the source)
T1 sequence (P56139 1-368): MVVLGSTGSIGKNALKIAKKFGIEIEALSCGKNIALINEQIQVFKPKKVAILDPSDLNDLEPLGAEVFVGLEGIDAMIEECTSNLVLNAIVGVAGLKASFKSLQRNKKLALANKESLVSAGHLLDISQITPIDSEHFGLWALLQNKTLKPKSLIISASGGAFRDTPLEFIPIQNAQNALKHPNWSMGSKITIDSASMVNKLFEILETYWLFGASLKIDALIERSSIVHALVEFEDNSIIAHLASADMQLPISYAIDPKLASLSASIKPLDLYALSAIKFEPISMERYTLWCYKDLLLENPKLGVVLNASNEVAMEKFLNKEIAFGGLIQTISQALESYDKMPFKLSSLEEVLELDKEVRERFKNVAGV
Experimental: The DOXP reductoisomerase of Helicobacter pylori was expressed as a recombinant protein in Helicobacter pylori. The activity of DOXP reductoisomerase was determined in a batch containing 100 mM tris-HCl (pH=7.5), 1 mM MnCl2, 0.3 mM NADPH and 1 mM DOXP.
The oxidation of NADPH was here measured at 365 nm in a spectrophotometer. The inhibition studies were performed by measuring the activity of DOXP reductoisomerase in the presence of compounds 1 to 8 (see page 5) at various concentrations between 0. 1 and 100 μmol l^−1.

In the case of CP(=O)(CNCN(O)C(=O)CCCN1CCOCC1)Oc1ccccc1 (stereo not drawn) [Compound 4, N-[(4-N-Morpholinobutanoyl-N-hydroxy)aminomethyl]aminomethyl(methyl)phosphinic acid phenyl ester], the pest or weed control at 2000 g/ha (Avena fatua [1]) is reported as 60%, the pest or weed control at 2000 g/ha (Abutilon theophrasti [2]) is reported as 0% and the pest or weed control at 2000 g/ha (Cyperus esculentus [3]) is reported as 0%. It also gave a pest or weed control at 2000 g/ha (Xanthium strumarium [4]) of 0%, a pest or weed control at 2000 g/ha (Amaranthus retroflexus [5]) of 20% and a pest or weed control at 2000 g/ha (Alopecurus myosuroides [6]) of 30%. It also gave a pest or weed control at 2000 g/ha (Setaria viridis [7]) of 0%, a plant injury at 2000 g/ha (Beta vulgaris [8]) of 60% and a pest or weed control at 2000 g/ha (Galium aperine [9]) of 0%. For the same molecule, the pest or weed control at 2000 g/ha (Sinapis arvensis [10]) was 70%, the plant injury at 2000 g/ha (Zea mays [11]) was 30% and the pest or weed control at 2000 g/ha (Avena fatua [12]) was 70%. It also gave a pest or weed control at 2000 g/ha (Abutilon theophrasti [13]) of 50%, a pest or weed control at 2000 g/ha (Cyperus esculentus [14]) of 0% and a pest or weed control at 2000 g/ha (Xanthium strumarium [15]) of 90%. For the same molecule, the pest or weed control at 2000 g/ha (Amaranthus retroflexus [16]) was 40%, the pest or weed control at 2000 g/ha (Alopecurus myosuroides [17]) was 70% and the pest or weed control at 2000 g/ha (Setaria viridis [18]) was 90%. The plant injury at 2000 g/ha (Beta vulgaris [19]) was 50%, the pest or weed control at 2000 g/ha (Galium aperine [20]) was 70% and the pest or weed control at 2000 g/ha (Sinapis arvensis [21]) was 80%. For the same molecule, the plant injury at 2000 g/ha (Zea mays [22]) was 70%, the pest or weed control at 4000 g/ha (Echinochloa) was 70% and the pest or weed control at 4000 g/ha (Lepidium) was 40%. For the same molecule, the pest or weed control at 4000 g/ha (Solanum) was 30%, the plant injury at 4000 g/ha (Rice) was 30% and the IC50 [23] was 110 nM.
